Assay results: patent US5488060A, “Substituted thiadiazoles, compositions containing them and their use as antimicrobial and marine antifouling agents” (The Dow Chemical Company, priority 1994, dated 1996)
Values after ≈ are worked out from the molar mass of the structure shown. Where two headings read alike, the source gives them in different places.

Tests used:
Assay type in all cases: cell-based
[1] = system: Staphylococcus aureus (Sa); test: Minimum inhibitory concentration (MIC) in nutrient agar, Staphylococcus aureus
Method: (§1) The antimicrobial activity of the compounds of the present invention is set forth as the minimum inhibitory concentration (MIC) for the active compounds and is determined for nine (9) bacteria, using nutrient agar, and seven (7) yeast and fungi, using malt yeast agar. This determination is conducted using a one percent solution of the test compound prepared in a mixture of acetone and water.
(§2) Nutrient agar is prepared at pH 6.8, representing a neutral medium, and at pH 8.2, representing an alkaline medium. The nutrient agars are prepared by adding 23 g of nutrient agar to one-liter of deionized water. In addition, the alkaline medium is prepared by adjusting a 0.04M solution of N-[tris-(hydroxymethyl)methyl]glycine buffered deionized water with concentrated sodium hydroxide to a pH of 8.5.
(§3) The test tubes containing the agar are cooled in a water bath until the temperature of the agar is 48° C. Then, an appropriate amount of the one percent solution of the test compound is added (except in the controls where no compound is added) to the respective test tubes so that the final concentrations are 500, […], 100, 50, 25, 10, 5, 2.5, 1.0 and zero parts per million of the test compound in the agar, thus having a known concentration of test compound dispersed therein. The contents of the test tubes are then transferred to respective petri plates. After drying for 24 hours, the petri plates containing nutrient agar are inoculated with bacteria and those containing malt yeast agar are inoculated with yeast and fungi.
(§4) The inoculation with bacteria is accomplished by using the following procedure. Twenty-four hour-cultures of each of the bacteria are prepared by incubating the respective bacteria in tubes containing nutrient broth for 24 hours at 30° C. in a shaker. Dilutions of each of the 24 hour-cultures are made so that nine separate suspensions (one for each of the nine test bacteria) are made, each containing 10^8 colony forming units (CFU) per mL of suspension of a particular bacteria. Aliquots of 0.3 mL of each of the bacterial suspensions are used to fill the individual wells of Steer's Replicator. For each microbial suspension, 0.3 mL was used to fill three wells (i.e., three wells of 0.3 mL each) so that for the nine different bacteria, 27 wells are filled. The Steer's Replicator is then used to inoculate both the neutral and alkaline pH nutrient agar petri plates.
(§5) The inoculated petri plates are incubated at 30° C. for 48 hours and then read to determine if the test compound which is incorporated into the agar prevented growth of the respective bacteria.

Fusarium oxysporum (Fo) = test: Minimum inhibitory concentration (MIC) in malt yeast agar, Fusarium oxysporum; conditions: pH 5.5; malt yeast agar, 30° C., 72 hours for fungi; read-out: Minimum Inhibitory Concentration, Fo
Method: as §1
(§6) Malt yeast agar is prepared at pH 5.5 by adding 3 g yeast extract and 45 g malt agar per liter of deionized water. The specific agar is dispensed in 30 mL aliquots into 25×200 mm test tubes, capped and autoclaved for 15 minutes at 115° C.
as §3
(§7) The inoculation with the yeast and fungi is accomplished as follows. Cultures of yeast and fungi are incubated for seven days on malt yeast agar at 30° C. These cultures are used to prepare suspensions by the following procedure. A suspension of each organism is prepared by adding 10 mL of sterile saline and 10 microliters of octylphenoxy polyethoxy ethanol to the agar slant of yeast or fungi. The sterile saline/octylphenoxy potyethoxy ethanol solution is then agitated with a sterile swab to suspend the microorganism grown on the slant. Each resulting suspension is diluted into sterile saline (1 part suspension: 9 parts sterile saline). Aliquots of these dilutions are placed in individual wells of Steer's Replicator and petri plates inoculated as previously described. The petri plates are incubated at 30° C. and read after 48 hours for yeast and 72 hours for fungi.

Escherichia coli (Ec) = test: Minimum inhibitory concentration (MIC) in nutrient agar, Escherichia coli; conditions: 48 h
Method: as §1, §2, §3, §4, §5

[2] = system: Salmonella choleraesuis (Se); test: Minimum inhibitory concentration (MIC) in nutrient agar, Salmonella choleraesuis; conditions: Salmonella enterica
Method: as §1, §2, §3, §4, §5

[3] = system: Enterobacter aerogenes (Ea); test: Minimum inhibitory concentration (MIC) in nutrient agar, Enterobacter aerogenes; conditions: Klebsiella aerogenes, 48 h
Method: as §1, §2, §3, §4, §5

[4] = system: Aureobasidium pullulan (Ap); test: Minimum inhibitory concentration (MIC) in malt yeast agar, Aureobasidium pullulan; conditions: pH 5.5, read-out: Minimum Inhibitory Concentration, Ap
Method: as §1, §6, §3, §7

Trichoderma viride (Tv) = test: Minimum inhibitory concentration (MIC) in malt yeast agar, Trichoderma viride; conditions: pH 5.5; malt yeast agar, 30° C., 72 hours for fungi; read-out: Minimum Inhibitory Concentration, Tv
Method: as §1, §6, §3, §7

[5] = system: Saccharomyces cerevisiae (Sc); test: Minimum inhibitory concentration (MIC) in malt yeast agar, Saccharomyces cerevisiae
Method: as §1, §6, §3, §7

[6] = system: Klebsiella pneumoniae (Kp); test: Minimum inhibitory concentration (MIC) in nutrient agar, Klebsiella pneumoniae
Method: as §1, §2, §3, §4, §5

Bacillus subtilis (Bs) = test: Minimum inhibitory concentration (MIC) in nutrient agar, Bacillus subtilis
Method: as §1, §2, §3, §4, §5

[7] = system: Pseudomonas aeruginosa (PRD-10); test: Minimum inhibitory concentration (MIC) in nutrient agar, Pseudomonas aeruginosa PRD-10; conditions: 48 h
Method: as §1, §2, §3, §4, §5

Proteus vulgaris (Pv) = test: Minimum inhibitory concentration (MIC) in nutrient agar, Proteus vulgaris; conditions: 48 h
Method: as §1, §2, §3, §4, §5

Aspergillus niger (An) = test: Minimum inhibitory concentration (MIC) in malt yeast agar, Aspergillus niger; conditions: pH 5.5; malt yeast agar, 30° C., 72 hours for fungi; read-out: Minimum Inhibitory Concentration, An
Method: as §1, §6, §3, §7

Candida albicans (Ca) = test: Minimum inhibitory concentration (MIC) in malt yeast agar, Candida albicans
Method: as §1, §6, §3, §7

[8] = system: Pseudomonas aeruginosa (Pa); test: Minimum inhibitory concentration (MIC) in nutrient agar, Pseudomonas aeruginosa; conditions: 30° C., 48 hours, read-out: Minimum Inhibitory Concentration, Pa
Method: as §1, §2, §3, §4, §5

[9] = system: Penicillium chrysogenum (Pc); test: Minimum inhibitory concentration (MIC) in malt yeast agar, Penicillium chrysogenum
Method: as §1, §6, §3, §7

[10] = pH 6.8, nutrient agar, 30° C., 48 hours, read-out: Minimum Inhibitory Concentration, Sa
[11] = pH 6.8, read-out: Minimum Inhibitory Concentration, Ec
[12] = pH 8.2, read-out: Minimum Inhibitory Concentration, Ec
[13] = 48 h, pH 8.2, read-out: Minimum Inhibitory Concentration, SC
[14] = pH 6.8, read-out: Minimum Inhibitory Concentration, Ea
[15] = pH 8.2, read-out: Minimum Inhibitory Concentration, Ea
[16] = 48 h, pH 8.2, read-out: Minimum Inhibitory Concentration, Kp
[17] = pH 6.8, nutrient agar, 30° C., 48 hours, read-out: Minimum Inhibitory Concentration, Bs
[18] = pH 6.8, read-out: Minimum Inhibitory Concentration, PRD
[19] = pH 8.2, read-out: Minimum Inhibitory Concentration, PRD
[20] = pH 6.8, read-out: Minimum Inhibitory Concentration, Pv
[21] = pH 8.2, read-out: Minimum Inhibitory Concentration, Pv
[22] = pH 5.5, malt yeast agar, 30° C., 48 hours for yeast, read-out: Minimum Inhibitory Concentration, Ca
[23] = 48 h, pH 8.2, read-out: Minimum Inhibitory Concentration, Sa
[24] = 48 h, pH 6.8, read-out: Minimum Inhibitory Concentration, SC
[25] = pH 5.5, malt yeast agar, 30° C., 48 hours for yeast, read-out: Minimum Inhibitory Concentration, SC
[26] = pH 6.8, nutrient agar, 30° C., 48 hours, read-out: Minimum Inhibitory Concentration, Kp
[27] = 48 h, pH 8.2, read-out: Minimum Inhibitory Concentration, Bs

SMILES	MIC [1, 10] [µg/mL]	MIC (Escherichia coli (Ec); [11]) [µg/mL]	MIC (Escherichia coli (Ec); [12]) [µg/mL]	MIC [2, 13] [µg/mL]	MIC [3, 14] [µg/mL]	MIC [3, 15] [µg/mL]	MIC [4] [µg/mL]	MIC (Trichoderma viride (Tv)) [µg/mL]	MIC [6, 16] [µg/mL]	MIC (Bacillus subtilis (Bs); [17]) [µg/mL]	MIC [7, 18] [µg/mL]	MIC [7, 19] [µg/mL]	MIC (Proteus vulgaris (Pv); [20]) [µg/mL]	MIC (Proteus vulgaris (Pv); [21]) [µg/mL]	MIC (Aspergillus niger (An)) [µg/mL]	MIC (Candida albicans (Ca); [22]) [µg/mL]	MIC ([8]; pH 6.8, nutrient agar) [µg/mL]	MIC ([8]; pH 8.2, nutrient agar) [µg/mL]	MIC [1, 23] [µg/mL]	MIC [2, 24] [µg/mL]	further results
N#CSc1nsnc1-c1cccc(Cl)c1 [Example III, 4-(3-Chlorophenyl)-3-thiocyanato-l,2,5-thiadiazole]	25 (≈ 98.5 µM)	50 (≈ 197 µM)	500 (≈ 1970 µM)	500 (≈ 1970 µM)	> 500	> 500	2.5 (≈ 9.85 µM)	2.5 (≈ 9.85 µM)	500 (≈ 1970 µM)	25 (≈ 98.5 µM)	> 500	500 (≈ 1970 µM)	> 500	500 (≈ 1970 µM)	5 (≈ 19.7 µM)	5 (≈ 19.7 µM)	> 500	500 (≈ 1970 µM)			MIC ([1]; pH 8.2, nutrient agar, 30° C., 48 hours, read-out: Minimum Inhibitory Concentration, Sa): 250 µg/mL (≈ 985 µM); MIC (Fusarium oxysporum (Fo)): 2.5 µg/mL (≈ 9.85 µM); MIC ([2]; pH 6.8, nutrient agar, 30° C., 48 hours, read-out: Minimum Inhibitory Concentration, SC): 50 µg/mL (≈ 197 µM); MIC ([5]; 48 h, pH 5.5, read-out: Minimum Inhibitory Concentration, SC): 2.5 µg/mL (≈ 9.85 µM); MIC ([6]; 48 h, pH 6.8, read-out: Minimum Inhibitory Concentration, Kp): 50 µg/mL (≈ 197 µM); MIC (Bacillus subtilis (Bs); pH 8.2, nutrient agar, 30° C., 48 hours, read-out: Minimum Inhibitory Concentration, Bs): 100 µg/mL (≈ 394 µM)
N#CSc1nsnc1-c1ccc(Br)cc1 [Example VI, 4-(4-Bromophenyl)-3-thiocyanato-1,2,5-thiadiazole]		500 (≈ 1680 µM)	500 (≈ 1680 µM)	500 (≈ 1680 µM)	500 (≈ 1680 µM)	500 (≈ 1680 µM)	2.5 (≈ 8.38 µM)	< 1	500 (≈ 1680 µM)	25 (≈ 83.8 µM)	500 (≈ 1680 µM)	500 (≈ 1680 µM)	500 (≈ 1680 µM)	500 (≈ 1680 µM)	5 (≈ 16.8 µM)	5 (≈ 16.8 µM)	500 (≈ 1680 µM)	500 (≈ 1680 µM)	500 (≈ 1680 µM)	500 (≈ 1680 µM)	MIC ([1]; 48 h, pH 6.8, read-out: Minimum Inhibitory Concentration, Sa): 50 µg/mL (≈ 168 µM); MIC ([9]; 72 h, pH 5.5, read-out: Minimum Inhibitory Concentration, PC): 10 µg/mL (≈ 33.5 µM); MIC [5, 25]: 5 µg/mL (≈ 16.8 µM); MIC [6, 26]: 500 µg/mL (≈ 1680 µM); MIC (Bacillus subtilis (Bs); [27]): 500 µg/mL (≈ 1680 µM)
COc1cccc(-c2nsnc2SC#N)c1 [Example VII, a-(3-Methoxyphenyl)-3-thiocyanato-1,2,5-thiadiazole]	250 (≈ 1000 µM)	> 500	500 (≈ 2010 µM)	500 (≈ 2010 µM)	> 500	500 (≈ 2010 µM)	5 (≈ 20.1 µM)	5 (≈ 20.1 µM)	500 (≈ 2010 µM)	25 (≈ 100 µM)	> 500	500 (≈ 2010 µM)	> 500	500 (≈ 2010 µM)	10 (≈ 40.1 µM)		> 500	500 (≈ 2010 µM)	500 (≈ 2010 µM)	> 500	MIC ([9]; pH 5.5, malt yeast agar, 30° C., 72 hours for fungi, read-out: Minimum Inhibitory Concentration, PC): 25 µg/mL (≈ 100 µM); MIC [5, 25]: 5 µg/mL (≈ 20.1 µM); MIC [6, 26]: > 500 µg/mL; MIC (Bacillus subtilis (Bs); [27]): 250 µg/mL (≈ 1000 µM); MIC (Candida albicans (Ca); 48 h, pH 5.5, read-out: Minimum Inhibitory Concentration, Ca): 50 µg/mL (≈ 201 µM)
